From patent US20090124539A1, “Methods of treating infection” (priority 2007, published 2009)
Read-outs that look alike come from different tables or passages of the source.

Columns and labels:
Streptococcus pneumoniae = experiment: MIC, broth microdilution (CLSI); type: cell-based
Description: (§1) The solvent for all of the compounds was deionized water (DIW), and all of the compounds dissolved in the solvent. The stock solutions were allowed to stand in DIW for one hour at room temperature prior to testing to allow time for auto-sterilization.
(§2) The test organisms were originally received from clinical sources, or from the American Type Culture Collection. When received, the organisms were sub-cultured onto an appropriate agar medium. Following incubation, colonies were harvested from these plates and cell suspensions prepared and frozen at −80° C. On the day prior to assay, a frozen vial of each culture was thawed and the contents were streaked for isolation onto either Tryptic Soy Agar (Becton Dickinson, Sparks, Md.) or Tryptic Soy Agar (Enhanced Hemolysis; Becton Dickinson) supplemented with 5% sheep blood for streptococci. The agar plates were incubated overnight at 35° C. Staphylococcus aureus ATCC 29213 and Enterococcus faecalis ATCC 29212 were included as quality control isolates in the assay.
(§3) The test medium for the broth microdilution testing was Mueller Hinton II broth (MHB II; BBL# 212322, Lot # 6024003, Becton Dickinson). The broth was prepared at 1.05× normal weight/volume to offset the 5% volume of the drug solution in the final test plates.
For streptococci, lysed horse blood (Lot # H88621; Cleveland Scientific, Bath, Ohio) was added to the MHB II at a final concentration of 2%. […]
(§4) MIC values were determined using a broth microdilution method as recommended by the Clinical and Laboratory Standards Institute (Clinical and Laboratory Standards Institute^a. Methods for Dilution Antimicrobial Susceptibility Tests for Bacteria That Grow Aerobically; Approved Standard-Seventh Edition. Clinical and Laboratory Standards Institute document M7-A7 [ISBN 1-56238-587-9]. Clinical and Laboratory Standards Institute, 940 West Valley Road, Suite 1400, Wayne, Pa. 19087-1898 USA, 2006). Automated liquid handlers (Multidrop 384, Labsystems, Helsinki, Finland; Biomek 2000 and Multimek 96, Beckman Coulter, Fullerton Calif.) were used to conduct serial dilutions and make liquid transfers.
(§5) Wells of two standard 96-well microdilution plates (Falcon 3918; Becton Dickinson) were filled with 150 μL of […] using the Multidrop 384. These plates were used to prepare the drug “mother plates” that provided the serial drug dilutions for replicate “daughter plates”. The Biomek 2000 was used to transfer 150 μl of each stock solution from the wells of column 1 of a deep well plate to the corresponding wells in column 1 of the mother plate and to make eleven 2-fold serial dilutions in the mother plates. The wells of column 12 contained no drug and were the organism growth control wells. Each mother plate has the capacity to create a total of 12 daughter plates.
(§6) The daughter plates were loaded with 180 μL of one of the media described above using the Multidrop 384. The wells of the daughter plates ultimately contained 180 μL of MHB II, 10 μL of drug solution, and 10 μL of bacterial inoculum prepared in broth appropriate to the test organism (1.05×). The daughter plates were prepared on the Multimek 96 instrument, which transferred 10 μL of drug solution from each well of the mother plate to each corresponding well of each daughter plate in a single step.
Standardized inoculum of each organism was prepared following Clinical and Laboratory Standards Institute (Clinical and Laboratory Standards Institute^b. Performance Standards for Antimicrobial Susceptibility Testing; Sixteenth Informational Supplement. CLSI document M100-S16 [ISBN 1-56238-588-7]. Clinical and Laboratory Standards Institute, 940 West Valley Road, Suite 1400, Wayne, Pa. 19087-1898 USA, 2006) methods. The inoculum for each organism was dispensed into sterile reservoirs divided by length (Beckman Coulter), and the Biomek 2000 was used to inoculate the plates. […]

Streptococcus pyogenes = experiment: MIC, broth microdilution (CLSI); type: cell-based
Description: as §1, §2, §3
For streptococci, lysed horse blood (Lot # H88621; Cleveland Scientific, Bath, Ohio) was added to the MHB II at a final concentration of 2%.
(§7) CLSI guidelines recommend that Mueller-Hinton II broth be adjusted to contain 50 mg/L of Ca^++ ions for proper daptomycin MIC results. Since Mueller-Hinton II broth has already been adjusted by the manufacturer to contain approximately 25 mg/L of Ca^++ ions, an additional 25 mg/L of Ca^++ ions was adjusted with 10 mg/mL of CaCl2.2H2O (Lot# 084K0215; Sigma-Aldrich) added at a rate of 0.1 mL/L of broth, for each desired increment of 1 mg/L. This supplemented Mueller-Hinton II broth was used only in wells containing daptomycin.
as §4, §5
as §6, with “step. […]” for “step.”

Enterococci = experiment: MIC, broth microdilution, summary over Enterococci; type: cell-based; settings: against Enterococci
Description: as §1
as §2, with “Staphylococcus aureus ATCC 29213 and Enterococcus faecalis ATCC 29212 were included as quality control isolates in the assay.” left out
as §4, with “Automated liquid handlers (Multidrop 384, Labsystems, Helsinki, Finland; Biomek 2000 and Multimek 96, Beckman Coulter, Fullerton Calif.) were used to conduct serial dilutions and make liquid transfers.” left out

Enterococcus faecalis [1] = experiment: MIC, broth microdilution (CLSI); type: cell-based
Description: as §1, §2, §3, §7, §4, §5
as §6, with “step. […]” for “step.”

[2] = system: Staphylococcus epidermidis; experiment: MIC, broth microdilution (CLSI); type: cell-based
Description: as §1, §2, §3, §7, §4, §5
as §6, with “step. […]” for “step.”

staphylococci = experiment: MIC, broth microdilution, summary over staphylococci; type: cell-based; settings: against staphylococci
Description: as §1
as §2, with “Staphylococcus aureus ATCC 29213 and Enterococcus faecalis ATCC 29212 were included as quality control isolates in the assay.” left out
as §4, with “Automated liquid handlers (Multidrop 384, Labsystems, Helsinki, Finland; Biomek 2000 and Multimek 96, Beckman Coulter, Fullerton Calif.) were used to conduct serial dilutions and make liquid transfers.” left out

Enterococcus faecium = experiment: MIC, broth microdilution (CLSI); type: cell-based
Description: (§8) The stock solutions were allowed to stand in DIW for one hour at room temperature prior to testing to allow time for auto-sterilization.
as §2, §3, §7, §4, §5, §6

Staphylococcus aureus [3] = experiment: MIC, broth microdilution (CLSI); type: cell-based
Description: as §8, §2, §3, §7, §4, §5, §6

Staphylococcus aureus [4] = settings: quality control range for Staphylococcus aureus ATCC 29213 (# 100); cited from earlier work
Enterococcus faecalis [5] = settings: quality control range for Enterococcus faecalis ATCC 29212 (# 101); cited from earlier work
[6] = Streptococcus pyogenes Micromyx # 942, macrolide^R

Empedopeptin
4 µg/mL: MIC (Enterococcus faecalis [1]; Enterococcus faecalis Micromyx # 101, VSE, CLSI QC strain (ATCC 29212)) | MIC (Staphylococcus aureus [3]; Staphylococcus aureus Micromyx # 100, MSSA, CLSI QC strain (ATCC 29213)) | MIC (Staphylococcus aureus [3]; Staphylococcus aureus Micromyx # 1002, MSSA, macrolide^R) | MIC (Staphylococcus aureus [3]; Staphylococcus aureus Micromyx # 1651, LZD^R clinical isolate) | MIC (Staphylococcus aureus [3]; Staphylococcus aureus Micromyx # 1723, VISA) | MIC (Staphylococcus aureus [3]; Staphylococcus aureus Micromyx # 1730, Community-acquired MRSA) | MIC (Staphylococcus aureus [3]; Staphylococcus aureus Micromyx # 1731, CHL^R)
2 µg/mL: MIC (Streptococcus pneumoniae; Streptococcus pneumoniae Micromyx # 375, parC, gyrB) | MIC (Streptococcus pneumoniae; Streptococcus pneumoniae Micromyx # 376, parC, gyrA) | MIC (Streptococcus pneumoniae; Streptococcus pneumoniae Micromyx # 379, parC, gyrA, gyrB)
1 µg/mL: MIC (Streptococcus pneumoniae; Streptococcus pneumoniae Micromyx # 374, Wild type)
0.5 µg/mL: MIC (Streptococcus pneumoniae; Streptococcus pneumoniae Micromyx # 928, erm(B)) | MIC (Staphylococcus aureus [3]; Staphylococcus aureus Micromyx # 106, RA^R)
8 µg/mL: MIC (Enterococcus faecalis [1]; Enterococcus faecalis Micromyx # 413, LZD^R from res. dev. or other) | MIC (Enterococcus faecalis [1]; Enterococcus faecalis Micromyx # 486, Van A) | MIC ([2]; Staphylococcus epidermidis Micromyx # 108, MRSE) | MIC ([2]; Staphylococcus epidermidis Micromyx # 835, MSSE) | MIC (Enterococcus faecium; Enterococcus faecium Micromyx # 750, Van^S) | MIC (Staphylococcus aureus [3]; Staphylococcus aureus Micromyx # 1004, MRSA, FA^R) | MIC (Staphylococcus aureus [3]; Staphylococcus aureus Micromyx # 1016, FA^R) | MIC (Staphylococcus aureus [3]; Staphylococcus aureus Micromyx # 1727, GM^R)
<0.12 µg/mL: MIC (Streptococcus pneumoniae; Streptococcus pneumoniae Micromyx # 927, mef(A))
≤ 0.12 µg/mL: MIC (Streptococcus pyogenes; both S. pyogenes test strains (including the macrolide-resistant strain))
0.5 to 8 µg/mL: MIC values in the range (staphylococci; all strains tested)
4 to 8 µg/mL: MIC, majority of strains inhibited (staphylococci; majority of strains)
≦0.12 μg/mL: MIC (Streptococcus pyogenes; [6]) | MIC (Streptococcus pyogenes; Streptococcus pyogenes Micromyx # 985, Susceptible)
16 µg/mL: MIC (Enterococcus faecalis [1]; Enterococcus faecalis Micromyx # 1088, Van B) | MIC (Enterococcus faecium; Enterococcus faecium Micromyx # 752, Van A) | MIC (Enterococcus faecium; Enterococcus faecium Micromyx # 1120, Van B)
≦0.12-2 μg/mL: MIC range (Streptococcus pneumoniae; all strains of S. pneumoniae)
8 to 16 µg/mL: MIC, most strains inhibited (Enterococci; most strains)
32 µg/mL: MIC (Enterococcus faecium; Enterococcus faecium Micromyx # 1721, DAP^R)
4 to 32 µg/mL: range of MIC values (Enterococci; all strains tested)

CC(=O)NC[C@H]1CN(c2ccc(N3CCOCC3)c(F)c2)C(=O)O1 [Linezolid, linezolid]
4 µg/mL: MIC (Streptococcus pneumoniae; Streptococcus pneumoniae, Streptococcus pneumoniae Micromyx # 374, Wild type, read-out: MIC) | MIC (Streptococcus pyogenes; [6]) | MIC (Streptococcus pyogenes; Streptococcus pyogenes Micromyx # 985, Susceptible, read-out: MIC) | MIC (Enterococcus faecalis [1]; Enterococcus faecalis, Enterococcus faecalis Micromyx # 486, Van A, read-out: MIC) | MIC (Enterococcus faecalis [1]; Enterococcus faecalis, Enterococcus faecalis Micromyx # 1088, Van B, read-out: MIC) | MIC ([2]; Staphylococcus epidermidis Micromyx # 108, MRSE, read-out: MIC) | MIC ([2]; Staphylococcus epidermidis Micromyx # 835, MSSE, read-out: MIC) | MIC (Enterococcus faecium; Enterococcus faecium, Enterococcus faecium Micromyx # 750, Van^S, read-out: MIC) | MIC (Enterococcus faecium; Enterococcus faecium, Enterococcus faecium Micromyx # 752, Van A, read-out: MIC) | MIC (Enterococcus faecium; Enterococcus faecium, Enterococcus faecium Micromyx # 1120, Van B, read-out: MIC) | MIC (Staphylococcus aureus [3]; Staphylococcus aureus, MRSA, Staphylococcus aureus Micromyx # 1004, MRSA, FA^R, read-out: MIC) | MIC (Staphylococcus aureus [3]; Staphylococcus aureus, MSSA, Staphylococcus aureus Micromyx # 1002, MSSA, macrolide^R, read-out: MIC) | MIC (Staphylococcus aureus [3]; Staphylococcus aureus, Staphylococcus aureus Micromyx # 106, RA^R, read-out: MIC) | MIC (Staphylococcus aureus [3]; Staphylococcus aureus, Staphylococcus aureus Micromyx # 1727, GM^R, read-out: MIC) | MIC (Staphylococcus aureus [3]; Staphylococcus aureus, VISA, Staphylococcus aureus Micromyx # 1723, VISA, read-out: MIC)
8 µg/mL: MIC (Enterococcus faecalis [1]; Enterococcus faecalis, ATCC29212, Enterococcus faecalis Micromyx # 101, VSE, CLSI QC strain (ATCC 29212), read-out: MIC) | MIC (Staphylococcus aureus [3]; Staphylococcus aureus, ATCC 29213 / MSSA, Staphylococcus aureus Micromyx # 100, MSSA, CLSI QC strain (ATCC 29213), read-out: MIC) | MIC (Staphylococcus aureus [3]; Staphylococcus aureus, MRSA, Staphylococcus aureus Micromyx # 1730, Community-acquired MRSA, read-out: MIC) | MIC (Staphylococcus aureus [3]; Staphylococcus aureus, Staphylococcus aureus Micromyx # 1016, FA^R, read-out: MIC) | MIC (Staphylococcus aureus [3]; Staphylococcus aureus, Staphylococcus aureus Micromyx # 1731, CHL^R, read-out: MIC)
1 to 4 µg/mL: MIC, CLSI Recommended Range (Staphylococcus aureus [4]) | MIC, CLSI Recommended Range (Enterococcus faecalis [5])
64 µg/mL: MIC (Enterococcus faecalis [1]; Enterococcus faecalis, Enterococcus faecalis Micromyx # 413, LZD^R from res. dev. or other, read-out: MIC) | MIC (Staphylococcus aureus [3]; Staphylococcus aureus, Staphylococcus aureus Micromyx # 1651, LZD^R clinical isolate, read-out: MIC)
2 µg/mL: MIC (Streptococcus pneumoniae; Streptococcus pneumoniae, Streptococcus pneumoniae Micromyx # 927, mef(A), read-out: MIC) | MIC (Streptococcus pneumoniae; Streptococcus pneumoniae, Streptococcus pneumoniae Micromyx # 928, erm(B), read-out: MIC) | MIC (Enterococcus faecium; Enterococcus faecium, Enterococcus faecium Micromyx # 1721, DAP^R, read-out: MIC)
